Earlier results, collected in US20090176850A1, “Novel 2-Amino-Imidazole-4-One Compounds And Their Use In The Manufacture Of A Medicament To Be Used In The Treatment Of Cognitive Impairment, Alzheimer's Disease, Neurodegeneration And Dementia” (ASTRAZENECA AB, priority 2005, published 2009).
Non-standard residues stand in square brackets, D forms with d. Residues, ends and D or L forms follow the SMILES beside them. *: point of attachment. Sta = CC(C)C[C@H](N)[C@@H](O)CC(=O)O; Isovaleryl = CC(C)CC(=O)*

Molecular target: BACE (Homo sapiens, UniProt P56817)
Sequence (P56817 46-501): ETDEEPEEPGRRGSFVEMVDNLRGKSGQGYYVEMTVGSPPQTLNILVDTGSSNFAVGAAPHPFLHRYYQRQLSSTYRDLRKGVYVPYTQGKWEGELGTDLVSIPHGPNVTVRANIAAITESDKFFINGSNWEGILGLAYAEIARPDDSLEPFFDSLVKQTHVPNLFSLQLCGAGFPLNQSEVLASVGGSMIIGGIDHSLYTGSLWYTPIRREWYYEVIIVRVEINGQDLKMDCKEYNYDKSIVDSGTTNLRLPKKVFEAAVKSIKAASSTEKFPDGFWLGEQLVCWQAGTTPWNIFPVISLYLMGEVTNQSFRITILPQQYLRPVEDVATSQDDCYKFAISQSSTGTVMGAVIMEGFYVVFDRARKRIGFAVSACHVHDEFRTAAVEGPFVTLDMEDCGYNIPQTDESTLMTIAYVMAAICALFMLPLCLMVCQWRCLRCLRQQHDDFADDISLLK
Details: Vassar et al, 1999

inhibition of BACE: inhibited weakly
SMILES: CC(C)CC(=O)N[C@H](C(=O)N[C@H](C(=O)N[C@@H](CC(C)C)[C@@H](O)CC(=O)N[C@@H](C)C(=O)N[C@@H](CC(C)C)[C@@H](O)CC(=O)O)C(C)C)C(C)C [pepstatin] (Isovaleryl-VV[Sta]A[Sta]-OH)
